Laboratory results reported in ChEMBL document CHEMBL4680245, “Design, synthesis and biological evaluation of tetrahydroquinoline-based reversible LSD1 inhibitors” (Eur J Med Chem, 2020).

How the values were obtained:
[1] = target: Lysine-specific histone demethylase 1A (Homo sapiens, UniProt O60341)
Description: Inhibition of human recombinant LSD1 using fluorogenic ADHP based substrate preincubated for 30 mins followed by substrate addition measured after 10 mins by horseradish peroxidase coupled fluorescence assay

[2] = tested on: A549; assay: cells; conditions: Homo sapiens, A549, 72 h
Description: Antiproliferative activity against human A549 cells incubated for 72 hrs by CCK8 assay

[3] = tested on: MGC-803; assay: cells; conditions: Homo sapiens, MGC-803, 72 h
Description: Antiproliferative activity against human MGC-803 cells incubated for 72 hrs by CCK8 assay

[4] = tested on: MCF7; assay: cells; conditions: Homo sapiens, MCF7, 72 h
Description: Antiproliferative activity against human MCF7 cells incubated for 72 hrs by CCK8 assay

[5] = tested on: PC-3; assay: cells; conditions: Homo sapiens, PC-3, 72 h
Description: Antiproliferative activity against human PC-3 cells incubated for 72 hrs by CCK8 assay

[6] = tested on: THP-1; assay: cells; conditions: Homo sapiens, THP-1, 72 h
Description: Antiproliferative activity against human THP-1 cells incubated for 72 hrs by CCK8 assay

[7] = tested on: NB-4; assay: cells; conditions: Homo sapiens, NB-4, 72 h
Description: Antiproliferative activity against human NB-4 cells incubated for 72 hrs by CCK8 assay

[8] = Solubility of compound; type: physicochemical

Row | SMILES | IC50 [1] [nM] | also measured
1 | O=C(Nc1cccc2c1N(Cc1ccc(OC3CCNCC3)cc1)CCC2)c1cccc2[nH]ccc12 | 0.54 | –
2 | Cn1c(C(=O)Nc2cccc3c2N(Cc2ccc(OCCCN)cc2)CCC3)cc2sccc21 | 47.4 | –
3 | O=C(Nc1cccc2c1N(Cc1ccc(OC3CCNCC3)cc1)CCC2)c1nc2ccccc2s1 | 0.92 | –
4 | O=C(Nc1cccc2c1N(Cc1ccc(OC3CCNCC3)cc1)CCC2)c1cc2ccccc2n1C(F)F | 0.39 | –
5 | Cn1c(C(=O)Nc2cccc3c2N(Cc2ccc(OC4CCNCC4)cc2)CCC3)cc2ccc(Cl)cc21 | 1.13 | –
6 | Cn1c(C(=O)Nc2cccc3c2N(Cc2ccc(OC4CC[N+](C)(C)CC4)cc2)CCC3)cc2sccc21 | 8.25 | solubility [8]: Insoluble
7 | O=C(Nc1cccc2c1N(Cc1ccc(OC3CCNCC3)cc1)CCC2)c1cc2ccccc2n1CC(F)F | 0.78 | –
8 | Cn1c(C(=O)Nc2cccc3c2N(Cc2ccc(OCc4ccc([N+](=O)[O-])cc4)cc2)CCC3)cc2sccc21 | > 50000 | –
9 | Cn1c(C(=O)Nc2cccc3c2N(Cc2ccc(O[C@H]4CC[C@@H](N)CC4)cc2)CCC3)cc2sccc21 | 38.3 | IC50 [2]: 7300 nM
10 | Cn1c(C(=O)Nc2cccc3c2N(Cc2ccc(OC4CCNCC4)cc2)CCC3)cc2cc(Cl)ccc21 | 16.3 | –
11 | N[C@H]1CC[C@H](N[C@H]2C[C@@H]2c2ccccc2)CC1 | – | IC50 [2]: > 30000 nM; IC50 [3]: > 30000 nM; IC50 [4]: > 30000 nM; IC50 [5]: > 30000 nM; IC50 [6]: > 30000 nM; IC50 [7]: > 30000 nM
12 | Cn1c(C(=O)Nc2cccc3c2N(Cc2ccc(OCc4ccc(C(N)=O)cc4)cc2)CCC3)cc2sccc21 | > 50000 | –
13 | CCn1c(C(=O)Nc2cccc3c2N(Cc2ccc(OC4CCNCC4)cc2)CCC3)cc2ccccc21 | 0.15 | IC50 [2]: 8390 nM; IC50 [3]: 3670 nM; IC50 [4]: 5590 nM; IC50 [5]: 5430 nM; IC50 [6]: 10200 nM; IC50 [7]: 1100 nM
14 | O=C(Nc1cccc2c1N(Cc1ccc(OC3CCNCC3)cc1)CCC2)c1nc2ccccc2[nH]1 | 2.31 | –
15 | Cn1c(C(=O)Nc2cccc3c2N(Cc2ccc(OCc4cccc(C(N)=O)c4)cc2)CCC3)cc2sccc21 | > 50000 | –
16 | Cn1c(C(=O)Nc2cccc3c2N(Cc2ccc(OCC4CCNCC4)cc2)CCC3)cc2sccc21 | 37.7 | IC50 [2]: 2820 nM; IC50 [3]: 3690 nM; IC50 [4]: 6590 nM; IC50 [5]: 4070 nM; IC50 [6]: 20400 nM; IC50 [7]: 2880 nM
17 | O=C(Nc1cccc2c1N(Cc1ccc(OC3CCNCC3)cc1)CCC2)c1cc2ccccc2n1CCCl | 0.15 | –
18 | O=C(Nc1cccc2c1N(Cc1ccc(OC3CCNCC3)cc1)CCC2)c1ccc(C(F)(F)F)cc1F | 5.12 | –
19 | O=C(Nc1cccc2c1N(Cc1ccc(OC3CCNCC3)cc1)CCC2)c1ccc2[nH]ccc2c1 | 4.58 | –
20 | O=C(Nc1cccc2c1N(Cc1ccc(OC3CCNCC3)cc1)CCC2)c1cc2ccccc2[nH]1 | 2.81 | –
21 | CN1CCC(COc2ccc(CN3CCCc4cccc(NC(=O)c5cc6sccc6n5C)c43)cc2)CC1 | 53.5 | –
22 | Cn1c(C(=O)Nc2cccc3c2N(Cc2ccc(OCC4CCOCC4)cc2)CCC3)cc2sccc21 | 732 | –
23 | O=C(Nc1cccc2c1N(Cc1ccc(OC3CCNCC3)cc1)CCC2)c1ccc(C(F)(F)F)cc1 | 1.82 | –

Now from value to molecule, other results behind:

Row | IC50 [1] [nM] | SMILES | also measured
24 | 0.93 | O=C(Nc1cccc2c1N(Cc1ccc(OC3CCNCC3)cc1)CCC2)c1cc2ccccc2s1 | –
25 | > 50000 | CNc1cccc(COc2ccc(CN3CCCc4cccc(NC(=O)c5cc6sccc6n5C)c43)cc2)c1 | –
26 | 46.8 | Cn1c(C(=O)Nc2cccc3c2N(Cc2ccc(OC4CCNC4)cc2)CCC3)cc2sccc21 (centres undefined) | IC50 [2]: 3640 nM
27 | 0.97 | Cn1nc(C(=O)Nc2cccc3c2N(Cc2ccc(OC4CCNCC4)cc2)CCC3)c2ccccc21 | –
28 | 1.52 | CCCn1c(C(=O)Nc2cccc3c2N(Cc2ccc(OC4CCNCC4)cc2)CCC3)cc2ccccc21 | –
29 | > 50000 | CN(C)c1cccc(COc2ccc(CN3CCCc4cccc(NC(=O)c5cc6sccc6n5C)c43)cc2)c1 | –
30 | > 50000 | Cn1c(C(=O)Nc2cccc3c2N(Cc2ccc(OCc4cccc([N+](=O)[O-])c4)cc2)CCC3)cc2sccc21 | –
31 | 36.6 | Cn1c(C(=O)Nc2cccc3c2N(Cc2ccc(O[C@H]4CC[C@H](N)CC4)cc2)CCC3)cc2sccc21 | –
32 | 36.3 | Cn1c(C(=O)Nc2cccc3c2N(Cc2ccc(O[C@H]4CC[C@H](N(C)C)CC4)cc2)CCC3)cc2sccc21 | –
33 | 36.4 | Cn1c(C(=O)Nc2cccc3c2N(Cc2ccc(OC4CCNCC4)cc2)CCC3)cc2sccc21 | IC50 [2]: 1250 nM; IC50 [3]: 2170 nM; IC50 [4]: 5720 nM; IC50 [5]: 3640 nM; IC50 [6]: 18100 nM; IC50 [7]: 2780 nM
34 | 4.44 | Cn1ccc2cccc(C(=O)Nc3cccc4c3N(Cc3ccc(OC5CCNCC5)cc3)CCC4)c21 | –
35 | > 50000 | Cn1c(C(=O)Nc2cccc3c2N(Cc2ccc(OCc4ccc(N)cc4)cc2)CCC3)cc2sccc21 | –
36 | 4.55 | Cn1cc(C(=O)Nc2cccc3c2N(Cc2ccc(OC4CCNCC4)cc2)CCC3)c2ccccc21 | –
37 | > 50 | O=C(Nc1cccc2c1N(Cc1ccc(OC3CCNCC3)cc1)CCC2)c1ccc(C(F)(F)F)nc1 | –
38 | > 50 | Cc1ccc2c(c1)cc(C(=O)Nc1cccc3c1N(Cc1ccc(OC4CCNCC4)cc1)CCC3)n2C | –
39 | > 50 | COc1ccc2c(c1)cc(C(=O)Nc1cccc3c1N(Cc1ccc(OC4CCNCC4)cc1)CCC3)n2C | –

Row | IC50 [1] [nM] | SMILES | also measured
40 | 31.3 | CN(C)CCCOc1ccc(CN2CCCc3cccc(NC(=O)c4cc5sccc5n4C)c32)cc1 | –
41 | 18.8 | O=C(Nc1cccc2c1N(Cc1ccc(OC3CCNCC3)cc1)CCC2)c1cnc2ccccc2c1 | –
42 | 17.3 | Cn1c(C(=O)Nc2cccc3c2N(Cc2ccc(OCC4CC[N+](C)(C)CC4)cc2)CCC3)cc2sccc21 | solubility [8]: Insoluble
43 | 0.06 | O=C(Nc1cccc2c1N(Cc1ccc(OC3CCNCC3)cc1)CCC2)c1cc2ccccc2n1CCF | IC50 [2]: 7670 nM; IC50 [3]: 6260 nM; IC50 [4]: 6960 nM; IC50 [5]: 2600 nM; IC50 [6]: 9780 nM; IC50 [7]: 3290 nM
44 | 1.56 | Cc1ccncc1C(=O)Nc1cccc2c1N(Cc1ccc(OC3CCNCC3)cc1)CCC2 | –
45 | 0.53 | O=C(Nc1cccc2c1N(Cc1ccc(OC3CCNCC3)cc1)CCC2)c1cc2ccccc2o1 | –
46 | 25.6 | Cn1ccc2cc(C(=O)Nc3cccc4c3N(Cc3ccc(OC5CCNCC5)cc3)CCC4)ccc21 | –
47 | 0.18 | CC(C)n1c(C(=O)Nc2cccc3c2N(Cc2ccc(OC4CCNCC4)cc2)CCC3)cc2ccccc21 | –
48 | > 50000 | Cn1c(C(=O)Nc2cccc3c2N(Cc2ccc(OCc4cccc(C#N)c4)cc2)CCC3)cc2sccc21 | –
49 | 2.65 | O=C(Nc1cccc2c1N(Cc1ccc(OC3CCNCC3)cc1)CCC2)c1cc2ccccc2n1CC1CC1 | –
50 | 38.2 | CN1CCC(Oc2ccc(CN3CCCc4cccc(NC(=O)c5cc6sccc6n5C)c43)cc2)CC1 | –
51 | 80.4 | Cn1c(C(=O)Nc2cccc3c2N(Cc2ccc(OC[C@@H]4CCNC4)cc2)CCC3)cc2sccc21 | IC50 [2]: 5230 nM
52 | > 50000 | Cn1c(C(=O)Nc2cccc3c2N(Cc2ccc(OCc4ccc(C#N)cc4)cc2)CCC3)cc2sccc21 | –
53 | 3.92 | Cn1ccc2c(C(=O)Nc3cccc4c3N(Cc3ccc(OC5CCNCC5)cc3)CCC4)cccc21 | –
54 | 13.1 | O=C(Nc1cccc2c1N(Cc1ccc(OC3CCNCC3)cc1)CCC2)c1ccc2ccccc2n1 | –
55 | 149 | Cn1c(C(=O)Nc2cccc3c2N(Cc2ccc(OC[C@H]4CCNC4)cc2)CCC3)cc2sccc21 | –
